We go through two compounds from patent US7163698B2, “Controlled drug delivery system using the conjugation of drug to biodegradable polyester” (priority 1998, dated 2007).

Like-named read-outs stand apart in the source and are kept apart here.

Data set [1] has as its system mouse EL4 thymoma cells. As to conditions: 240 μg/kg s.c. daily during 12 days, C57BL16 mice.
Protocol: Antitumor activity against solid tumor of free doxorubicin, free PLGA, doxorubicin encapsulated in nanoparticles and doxorubicin conjugated with nanoparticles was evaluated with mouse EL4 thymoma cells. EL4 Cells (2×10^4 cells in 0.1 ml of PBS pH 7.4 buffer) were transplanted into C57BL16 female mice (10 weeks old) subcutaneously on day 0 and drug injection started on day 10, when tumor diameter reached approximately 2 mm.
The mice were divided into five different groups, each group consisting of 6 mice. The first group, control group, was s.c. injected 100 μl PBS pH 7.4 daily during 12 days and the second group free doxorubicin (240 μg/kg body weight). However, the third group was s.c. injected placebo microsphere daily in the first two days, the fourth group nanoparticle conjugated with doxorubicin (2.4 mg/kg body weight) and the fifth group, doxorubicin encapsulated in nanoparticle (1.2 mg/kg body weight).
Data set [2] has as its system human hepatoblastoma cell line (HepG2). In words: Cytotoxicity MTT assay. The format is cell-based. As to conditions: HepG2, 72 hrs. The method, then:
Cytotoxicities of doxorubicin and its PLGA oligomer conjugates released from nanoparticles were determined against human hepatoblastoma cell line (HepG2) obtained from Korea Research Institute of Bioscience and Biotechnology. Free doxorubicin and the released fraction from nanoparticles for 19 days incubation were used for determining the inhibition of cell growth using a tetrazolium dye (MTT) assay according to the previously established method [R. I. Freshney, Measurement of Viability and Cytotoxicity, Chapter 19 in Culture of Animal Cells, Third Edition., Wiley-Liss Inc., New York, 1994, pp. 287–307]. Dulbecco's modification of Eagle's MEM (DMEM) was used as a major cell growth medium and a humidified atmosphere (5% CO2) was maintained for cell culture. HepG2 cells harvested in a logarithmic growth phase were seeded on 96 wells at a cell density of 5×10^3 cells/ml. After incubating the cells in a logarithmic phase with various concentrations of free doxorubicin and the released fraction for 72 hrs, the MTT assay was performed and the percentage of cell viability was then determined.

For data set [3] the test system is unchanged. The note with it: literature value; read-out: reported IC50; cited from earlier work.
The conditions of data set [4]: with polyester polymer carrier; cited from earlier work.

The term IC50 denotes the concentration that inhibits the measured activity by half. Turning to `COc1cccc2c1C(=O)c1c(O)c3c(c(O)c1C2=O)C[C@@](O)(C(=O)CO)C[C@@H]3O[C@H]1C[C@H](N)[C@H](O)[C@H](C)O1` [free doxorubicin, doxorubicin], the “antitumor activity (tumor diameter)” value in data set [1] is on record as “significant tumor growth inhibition”. The IC50 in data set [2] was 8.9 µM; in data set [3], 7.3 µM.
Turning to gentamycin, the initial burst effects entry in data set [4] is “over 50%”.
